Earlier results as cited in patent US20250303004A1, “RADIOPHARMACEUTICAL COMPOSITIONS FOR LOW TOXICITY ACTINIUM IN TARGETED RADIONUCLIDE THERAPY” (Curium US LLC, priority 2021, published 2025).
Entries after “also recorded” stand apart in the source; their conditions may differ. Where two headings read alike, the source gives them in different places.

Key:
men with mCRPC = details: cited from earlier work
patients with mCRPC = details: cited from earlier work
patients [1] = details: van der Doelen 2020; 13 patients; 6-8 MBq per cycle; cited from earlier work
patient = details: cited from earlier work
patients [2] = details: out of 60; cited from earlier work
[3] = 73 patients, percentage in parentheses
[4] = Sathekge 2020, 73 patients, 4-8 MBq per cycle
[5] = Yadav 2020, 28 patients, 100 kBq/kg per cycle
[6] = group with previous ^177Lu-PSMA
[7] = 3 cycles of mean 8.4 MBq, PSA 39.7 ng/ml at first cycle

## O=C(O)CC[C@H](NC(=O)N[C@@H](CCCCNC(=O)[C@H](Cc1ccc2ccccc2c1)NC(=O)[C@H]1CC[C@H](CNC(=O)CN2CCN(CC(=O)O)CCN(CC(=O)O)CCN(CC(=O)O)CC2)CC1)C(=O)O)C(=O)O [^225Ac-PSMA-617, metal not drawn]
Men with mCRPC; 73 patients
  Dysuria, Grade I or II: 13 patients
  Dysuria, Grade III: 0 patients
  Dysuria, Grade IV: 0 patients
  Fatigue, Grade I or II: 37 patients
  Fatigue, Grade III: 0 patients
  Fatigue, Grade IV: 0 patients
  Hypoalbuminemia, Grade I or II: 14 patients
  Hypoalbuminemia, Grade III: 0 patients
  Hypoalbuminemia, Grade IV: 0 patients
  Leukopenia, Grade I or II: 7 patients
  Leukopenia, Grade IV: 0 patients
  Nausea, Grade I or II: 15 patients
  Nausea, Grade III: 0 patients
  Nausea, Grade IV: 0 patients
  Renal Failure, Grade I or II: 18 patients
  Thrombocytopenia, Grade I or II: 6 patients
  Thrombocytopenia, Grade IV: 0 patients
  Vomiting, Grade I or II: 4 patients
  Vomiting, Grade III: 0 patients
  Vomiting, Grade IV: 0 patients
  Weight loss, Grade I or II: 28 patients
  Weight loss, Grade III: 0 patients
  Weight loss, Grade IV: 0 patients
  patients with negative ^68Ga-PSMA PET/CT images post therapy: 29%
Men with mCRPC; [3]
  Anemia, Grade III: 5 (7) patients
  Leukopenia, Grade III: 2 (3) patients
  Renal Failure, Grade III: 3 (4) patients
  Renal Failure, Grade IV: 2 (3) patients
  Thrombocytopenia, Grade III: 1 (1) patients
Men with mCRPC; [4]
  Biochemical response PSA50 (≥50% PSA decline): 70%
  OS: 18.0 mo
  PFS: 15.2 mo
Men with mCRPC; Sathekge 2020, 73 patients, 4-8 MBq per cycle, listed as PSMA-617
  Biochemical response PSA50 (≥50% PSA decline): 70%
Men with mCRPC; at the end of therapy, 73 patients
  patients with any decline in PSA: 82%
Men with mCRPC; of 73
  patients who had passed away: 13 patients
  patients with disease progression: 23 patients
Patients with mCRPC; [5]
  Biochemical response PSA50: 39%
  Major toxicity: xerostomia; also recorded: fatigue
  OS: 17 mo
  PFS: 12 mo
Patients with mCRPC; ^177Lu PSMA naïve group
  PSA decline of >50%: 53.8%
  median survival: 12 months
  overall survival: 17 months
  progression rate: 22.3%
Patients with mCRPC; [6]
  PSA decline of >50%: 26.6%
  median survival: 10 months
  overall survival: 16 months
  progression rate: 46%
Patients [1]
  Biochemical response PSA50: 69%
  Major toxicity: xerostomia
  OS: na/8.5 mo
patient; [7]
  PSA level at second cycle: 7.7 ng/mL
  PSA level at third cycle: 0.32 ng/mL
patient; 3 cycles of mean 8.4 MBq
  xerostomia: chronic xerostomia
patient; January 2019, increased from 1.3 in October 2015
  creatinine: 3.3 mg/dL
Patients [2]
  patients with poor response despite sufficient tumor uptake in PSMA PET/CT: 10 patients
